Measurements reported in ChEMBL document CHEMBL5370581, “NMR-Metabolomic Profiling and Genome Mining Drive the Discovery of Cyclic Decapeptides from a Marine Streptomyces” (J Nat Prod, 2023).

Tests used:
Assay type in all cases: functional, cell-based
HEL = experiment: Cytotoxicity against HEL cells assessed as reduction in cell viability incubated for 72 hrs by WST assay; conditions: Homo sapiens
NCI-H1975 = experiment: Cytotoxicity against human NCI-H1975 cells assessed as reduction in cell viability incubated for 48 hrs by MTT assay; conditions: NCI-H1975, 48 h
NCI-H1299 = experiment: Cytotoxicity against human NCI-H1299 cells assessed as reduction in cell viability incubated for 48 hrs by MTT assay; conditions: NCI-H1299, 48 h
A549/TR = experiment: Cytotoxicity against human A549/Taxol cells assessed as reduction in cell viability incubated for 48 hrs by MTT assay
A549 = experiment: Cytotoxicity against human A549 cells assessed as reduction in cell viability incubated for 72 hrs by SRB assay; conditions: A549, 72 h
HCT-116 = experiment: Cytotoxicity against human HCT-116 cells assessed as reduction in cell viability incubated for 72 hrs by SRB assay; conditions: HCT-116, 72 h
MDA-MB-231 = experiment: Cytotoxicity against human MDA-MB-231 cells assessed as reduction in cell viability incubated for 72 hrs by SRB assay; conditions: MDA-MB-231, 72 h
SK-HEP1 = experiment: Cytotoxicity against human SK-HEP1 cells assessed as reduction in cell viability incubated for 72 hrs by SRB assay; conditions: SK-HEP1, 72 h
SNU-638 = experiment: Cytotoxicity against human SNU-638 cells assessed as reduction in cell viability incubated for 72 hrs by SRB assay; conditions: SNU-638, 72 h
K562 = experiment: Cytotoxicity against human K562 cells assessed as reduction in cell viability incubated for 72 hrs by SRB assay; conditions: K562, 72 h

Row | SMILES | IC50 (HEL) [nM] | IC50 (NCI-H1975) [nM] | IC50 (NCI-H1299) [nM] | IC50 (A549/TR) [nM] | IC50 (A549) [nM] | IC50 (HCT-116) [nM] | IC50 (MDA-MB-231) [nM] | IC50 (SK-HEP1) [nM] | IC50 (SNU-638) [nM] | IC50 (K562) [nM]
1 | CC(C)C[C@@H]1NC(=O)[C@H](Cc2ccccc2)N(C)C(=O)[C@@H](C)NC(=O)[C@H](C(C)C)N(C)C(=O)CCNC(=O)[C@H](C)N(C)C(=O)[C@H](C(C)C)NC(=O)[C@H](Cc2c[nH]c3ccccc23)N(C)C(=O)[C@@H]2CCCNN2C(=O)[C@H](CO)N(C)C1=O | 14000 | 24000 | 11000 | 17000 | – | – | – | – | – | –
2 | CC[C@H](C)[C@@H]1NC(=O)[C@H](Cc2c[nH]c3ccccc23)N(C)C(=O)[C@@H]2CCCNN2C(=O)[C@H](CO)N(C)C(=O)[C@H](CC(C)C)NC(=O)[C@H](Cc2ccccc2)N(C)C(=O)[C@@H](C)NC(=O)[C@H](C(C)C)N(C)C(=O)CCNC(=O)[C@H](C)N(C)C1=O | 13000 | 8000 | 11000 | 19000 | 200 | 200 | 200 | 200 | 200 | 200
3 | COc1cccc2c1C(=O)c1c(O)c3c(c(O)c1C2=O)C[C@@](O)(C(=O)CO)C[C@@H]3O[C@H]1C[C@H](N)[C@H](O)[C@H](C)O1 [DOXORUBICIN] | 50 | 120 | 1400 | 1600 | – | – | – | – | – | –
4 | COc1cc([C@@H]2c3cc4c(cc3[C@@H](O[C@@H]3O[C@@H]5CO[C@@H](C)O[C@H]5[C@H](O)[C@H]3O)[C@H]3COC(=O)[C@H]23)OCO4)cc(OC)c1O [ETOPOSIDE] | – | – | – | – | 400 | 400 | 400 | 400 | 400 | 400
